# Values of other authors, collected in patent US8241397B2, “Adsorptive gas sampler using ionic nano-droplets” (Honeywell International Inc., priority 2008, dated 2012).
# Settings: water uptake
row,SMILES,Solubility of solvent H2O in ionic liquid (% w/w)
1,"CCCCn1cc[n+](C)c1.O=S(=O)([N-]S(=O)(=O)C(F)(F)F)C(F)(F)F [[C4MIM][TF2N], [C4MIM] bis(trifluoromethylsulfonyl) imide]",1.17
2,CCCCCCn1cc[n+](C)c1.O=S(=O)([N-]S(=O)(=O)C(F)(F)F)C(F)(F)F [[C6MIM][TF2N]],0.88
3,CCCCCCCCn1cc[n+](C)c1.O=S(=O)([N-]S(=O)(=O)C(F)(F)F)C(F)(F)F [[C8MIM][TF2N]],0.74
